Results as given in ChEMBL document CHEMBL1157521, “Discovery of a potent, selective, and less flexible selective norepinephrine reuptake inhibitor (sNRI)” (Bioorg Med Chem Lett, 2008).

Key:
[1] = target: Sodium-dependent noradrenaline transporter (Homo sapiens, UniProt P23975); experiment: Inhibition of norepinephrine uptake at human NET in human HEK293 cells; format: cell-based
[2] = target: Sodium-dependent dopamine transporter (Homo sapiens, UniProt Q01959); experiment: Inhibition of dopamine uptake at human DAT in human HEK293 cells; format: cell-based
Chain of Sodium-dependent dopamine transporter (Q01959 whole entry): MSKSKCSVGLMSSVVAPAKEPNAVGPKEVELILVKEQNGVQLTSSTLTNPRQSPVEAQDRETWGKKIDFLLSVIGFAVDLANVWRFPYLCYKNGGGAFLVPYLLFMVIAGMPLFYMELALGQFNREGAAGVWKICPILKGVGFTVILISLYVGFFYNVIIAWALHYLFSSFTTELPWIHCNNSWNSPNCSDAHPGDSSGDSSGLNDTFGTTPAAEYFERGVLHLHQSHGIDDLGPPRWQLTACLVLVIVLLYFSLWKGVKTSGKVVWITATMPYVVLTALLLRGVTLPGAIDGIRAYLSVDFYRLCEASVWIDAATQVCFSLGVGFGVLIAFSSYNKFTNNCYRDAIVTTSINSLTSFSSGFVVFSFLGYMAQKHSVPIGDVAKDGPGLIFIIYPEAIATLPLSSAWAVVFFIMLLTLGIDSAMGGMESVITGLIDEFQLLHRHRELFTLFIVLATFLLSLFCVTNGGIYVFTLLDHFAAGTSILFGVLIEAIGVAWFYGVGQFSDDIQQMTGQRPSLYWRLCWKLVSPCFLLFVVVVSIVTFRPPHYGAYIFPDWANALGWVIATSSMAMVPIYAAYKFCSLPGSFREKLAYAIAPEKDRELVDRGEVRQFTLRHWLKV

[3] = target: Sodium-dependent serotonin transporter (Homo sapiens, UniProt P31645); format: cell-based, HEK293;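 also: blockade of serotonin uptake through human SERT expressed in HEK293 cells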
Chain of Sodium-dependent serotonin transporter (P31645 whole entry): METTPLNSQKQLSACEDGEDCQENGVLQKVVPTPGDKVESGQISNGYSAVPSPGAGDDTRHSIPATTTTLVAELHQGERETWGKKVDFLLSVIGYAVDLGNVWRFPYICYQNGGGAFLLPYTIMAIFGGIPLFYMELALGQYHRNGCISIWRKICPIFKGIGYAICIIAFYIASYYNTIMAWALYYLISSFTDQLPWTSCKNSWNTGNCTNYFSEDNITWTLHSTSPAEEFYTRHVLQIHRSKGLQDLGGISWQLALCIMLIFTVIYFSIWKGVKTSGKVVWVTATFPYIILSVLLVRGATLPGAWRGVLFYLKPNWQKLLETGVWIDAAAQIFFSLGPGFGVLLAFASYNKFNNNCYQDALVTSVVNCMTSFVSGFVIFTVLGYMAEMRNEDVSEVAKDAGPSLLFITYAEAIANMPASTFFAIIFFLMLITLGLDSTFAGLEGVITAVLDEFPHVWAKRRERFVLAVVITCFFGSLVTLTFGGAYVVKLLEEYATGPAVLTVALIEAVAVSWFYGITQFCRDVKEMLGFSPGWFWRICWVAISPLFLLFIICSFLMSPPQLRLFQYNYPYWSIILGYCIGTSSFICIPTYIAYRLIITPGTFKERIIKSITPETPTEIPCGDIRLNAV

Cytochrome P450 2D6 = Cytochrome P450 2D6 (Homo sapiens, UniProt P10635); experiment: Inhibition of CYP2D6; format: ADME
Chain of Cytochrome P450 2D6 (P10635 whole entry): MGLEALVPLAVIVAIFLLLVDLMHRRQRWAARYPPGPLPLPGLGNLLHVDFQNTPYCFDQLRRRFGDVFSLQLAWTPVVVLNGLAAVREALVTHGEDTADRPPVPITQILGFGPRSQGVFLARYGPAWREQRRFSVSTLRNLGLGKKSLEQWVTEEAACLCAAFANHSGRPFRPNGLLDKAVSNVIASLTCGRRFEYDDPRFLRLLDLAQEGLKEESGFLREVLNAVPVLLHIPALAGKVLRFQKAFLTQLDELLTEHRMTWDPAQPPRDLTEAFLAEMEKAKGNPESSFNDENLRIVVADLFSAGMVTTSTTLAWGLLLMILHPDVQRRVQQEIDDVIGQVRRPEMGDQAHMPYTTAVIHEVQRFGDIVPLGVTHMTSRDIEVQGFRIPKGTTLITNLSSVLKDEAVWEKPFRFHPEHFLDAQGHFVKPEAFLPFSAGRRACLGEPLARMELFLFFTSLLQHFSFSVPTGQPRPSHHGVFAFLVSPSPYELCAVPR

[4] = target: 5-hydroxytryptamine receptor 2B (Homo sapiens) (UniProt P41595); experiment: Binding affinity to 5HT2B
Chain of 5-hydroxytryptamine receptor 2B (Homo sapiens) (P41595 whole entry): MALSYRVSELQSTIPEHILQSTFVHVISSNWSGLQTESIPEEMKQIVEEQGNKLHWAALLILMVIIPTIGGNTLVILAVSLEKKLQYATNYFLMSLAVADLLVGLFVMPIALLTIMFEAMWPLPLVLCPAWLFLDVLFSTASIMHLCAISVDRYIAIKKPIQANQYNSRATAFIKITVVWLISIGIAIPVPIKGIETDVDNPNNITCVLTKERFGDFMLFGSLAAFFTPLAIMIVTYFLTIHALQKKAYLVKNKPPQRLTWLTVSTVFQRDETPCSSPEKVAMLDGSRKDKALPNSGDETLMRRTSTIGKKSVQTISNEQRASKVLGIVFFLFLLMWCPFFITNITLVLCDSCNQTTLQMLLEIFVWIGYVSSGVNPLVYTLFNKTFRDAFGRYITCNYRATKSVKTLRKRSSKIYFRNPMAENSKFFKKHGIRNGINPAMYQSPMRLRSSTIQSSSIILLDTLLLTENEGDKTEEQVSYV

Chain of Sodium-dependent noradrenaline transporter (P23975 whole entry): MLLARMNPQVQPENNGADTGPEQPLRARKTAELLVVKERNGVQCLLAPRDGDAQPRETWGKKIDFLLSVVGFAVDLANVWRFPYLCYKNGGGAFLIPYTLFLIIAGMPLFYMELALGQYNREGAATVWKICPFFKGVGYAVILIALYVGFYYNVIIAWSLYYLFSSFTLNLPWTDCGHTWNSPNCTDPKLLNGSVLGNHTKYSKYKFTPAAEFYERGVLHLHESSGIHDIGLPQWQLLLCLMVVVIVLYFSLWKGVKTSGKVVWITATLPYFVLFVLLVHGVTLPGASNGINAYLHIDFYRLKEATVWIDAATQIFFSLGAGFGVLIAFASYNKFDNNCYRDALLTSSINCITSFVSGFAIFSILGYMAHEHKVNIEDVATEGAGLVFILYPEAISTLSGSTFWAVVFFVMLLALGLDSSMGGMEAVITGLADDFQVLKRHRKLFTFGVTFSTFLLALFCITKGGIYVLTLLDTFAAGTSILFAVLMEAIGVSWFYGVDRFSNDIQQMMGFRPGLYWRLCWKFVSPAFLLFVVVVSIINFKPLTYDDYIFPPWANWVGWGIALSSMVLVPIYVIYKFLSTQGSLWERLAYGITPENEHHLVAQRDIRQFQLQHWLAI

| Structure (SMILES) | IC50 [1] [nM] | IC50 [2] [nM] | IC50 [3] [nM] | IC50 (Cytochrome P450 2D6) [nM] | Activity [4] [nM] |
| --- | --- | --- | --- | --- | --- |
| CN[C@@H]1Cc2ccccc2[C@H](Oc2ccccc2C)C1 | 190 | > 10000 | 3000 | – | – |
| CN[C@H]1Cc2ccccc2[C@H](Oc2ccccc2C)C1 | 8 | 8000 | 590 | 250 | 250 |
| COc1ccc(O[C@H]2C[C@@H](N(C)C)c3ccccc32)cc1 | 6000 | > 10000 | 130 | – | – |
| Cc1ccccc1O[C@@H]1C[C@@H](N(C)C)Cc2ccccc21 | 430 | > 10000 | 700 | – | – |
| Cc1ccccc1O[C@H]1C[C@H](N(C)C)c2ccccc21 | 150 | 3400 | 150 | – | – |
| CN[C@@H]1Cc2ccccc2[C@@H](Oc2ccccc2C)C1 | 200 | 4500 | 3300 | – | – |
| CN[C@H]1Cc2ccccc2[C@@H](Oc2ccccc2C)C1 | 160 | 6000 | 1100 | – | – |
| CN[C@@H]1C[C@H](Oc2ccccc2)c2ccccc21 (relative stereo) | 2000 | 5000 | > 10000 | – | – |
| CN[C@@H]1C[C@H](Oc2ccccc2C)c2ccccc21 (relative stereo) | 660 | 4600 | 1400 | – | – |
| CN[C@@H]1CC[C@H](Oc2ccccc2C)c2ccccc21 (relative stereo) | 520 | 1000 | 5000 | – | – |
| Cc1ccccc1O[C@H]1CC[C@@H](N)c2ccccc21 (relative stereo) | 630 | 1000 | 2300 | – | – |
| Cc1ccccc1O[C@@H]1CC[C@@H](N)c2ccccc21 (relative stereo) | 950 | 1000 | > 10000 | – | – |
| Cc1ccccc1O[C@H]1C[C@H](N)c2ccccc21 (relative stereo) | 840 | 600 | 10000 | – | – |
| CN[C@H]1C[C@H](Oc2ccccc2C)c2ccccc21 (relative stereo) | 72 | 180 | 370 | – | – |
| CCN[C@@H]1C[C@H](Oc2ccccc2C)c2ccccc21 (relative stereo) | 3000 | 2500 | 8000 | – | – |
| CCN(CC)[C@@H]1C[C@H](Oc2ccccc2C)c2ccccc21 (relative stereo) | 2000 | 2500 | 3000 | – | – |
| Cc1ccccc1O[C@H]1C[C@@H](N(C)C(C)C)c2ccccc21 (relative stereo) | 1100 | > 10000 | > 10000 | – | – |
| CN(C)[C@@H]1C[C@H](Oc2ccc(Cl)cc2)c2ccccc21 (relative stereo) | 1600 | 7000 | 50 | – | – |
| COc1ccccc1O[C@H]1C[C@@H](N(C)C)c2ccccc21 (relative stereo) | 3000 | > 10000 | 3500 | – | – |
| CN[C@@H]1C[C@H](Oc2ccc(Cl)cc2)c2ccccc21 (relative stereo) | 4000 | 4000 | 320 | – | – |
| N[C@@H]1C[C@H](Oc2ccc(Cl)cc2)c2ccccc21 (relative stereo) | 4000 | 2400 | 9000 | – | – |
| CN(C)[C@@H]1C[C@H](Oc2ccccc2)c2ccccc21 (relative stereo) | 800 | > 10000 | 2000 | – | – |
| Cc1ccccc1O[C@H]1C[C@@H](N(C)C)c2ccccc21 (relative stereo) | 150 | 10000 | 300 | – | – |
| N[C@@H]1C[C@H](Oc2ccccc2)c2ccccc21 (relative stereo) | 5000 | 2000 | > 10000 | – | – |
| CNCCC(Oc1ccccc1OC)c1ccccc1 (stereo not given) [NISOXETINE] | – | – | 1400 | – | – |
